{"source": "patent US9695155B2", "about": "“Herbicidal substituted pyrimidinyloxy benzene compounds” (E. I. DU PONT DE NEMOURS AND COMPANY, priority 2013, dated 2017)", "key": {"corn [1]": {"test_system": "corn", "assay": "Test A preemergence", "format": "in vivo, Zea mays", "summary_of_the_method": "(§1)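 Injury scores run from 0, no effect, to 100, complete control, judged by eye against untreated plants roughly 10 days after treatment. Chemicals carried a surfactant in a non-phytotoxic solvent and went onto loam–sand soil preemergence or onto one- to two-leaf seedlings postemergence.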"}, "Heteranthera limosa": {"test_system": "Heteranthera limosa", "assay": "Test B flooded paddy test", "format": "in vivo", "settings": "Flood, 250 g ai/ha; 0 to 100 scale where 0 is no effect and 100 is complete control", "summary_of_the_method": "(§2)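 Post-emergence paddy-water application at the 2-leaf stage, with 3 cm flood kept for the whole test. Response was judged visually relative to controls after 13 to 15 greenhouse days, 0 indicating no effect and 100 complete control.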"}, "barnyardgrass [2]": {"test_system": "barnyardgrass", "assay": "Test A preemergence", "format": "in vivo, Echinochloa crus-galli", "summary_of_the_method": "as §1"}, "barnyardgrass [3]": {"test_system": "barnyardgrass", "assay": "Test B flooded paddy test", "format": "in vivo, Echinochloa crus-galli", "settings": "Flood, 250 g ai/ha; 0 to 100 scale where 0 is no effect and 100 is complete control", "summary_of_the_method": "as §2"}, "morningglory [4]": {"test_system": "morningglory", "assay": "Test A postemergence", "format": "in vivo, Ipomoea spp.", "summary_of_the_method": "as §1"}, "pigweed [5]": {"test_system": "pigweed", "assay": "Test A postemergence", "format": "in vivo, Amaranthus retroflexus", "summary_of_the_method": "as §1"}, "pigweed [6]": {"test_system": "pigweed", "assay": "Test A preemergence", "format": "in vivo, Amaranthus retroflexus", "settings": "for Pigweed plant response rating: 0 to 100 scale, 0 no effect, 100 complete control, approx. 10 days", "summary_of_the_method": "as §1"}, "wheat [7]": {"test_system": "wheat", "assay": "Test A preemergence", "format": "in vivo, Triticum aestivum", "settings": "for Wheat plant response rating: 0 to 100 scale, 0 no effect, 100 complete control, approx. 10 days", "summary_of_the_method": "as §1"}, "rice": {"test_system": "rice", "assay": "Test B flooded paddy test", "format": "in vivo, Oryza sativa", "settings": "Flood, 250 g ai/ha; 0 to 100 scale where 0 is no effect and 100 is complete control", "summary_of_the_method": "as §2"}, "large (Lg) crabgrass [8]": {"test_system": "large (Lg) crabgrass", "assay": "Test A preemergence", "format": "in vivo, Digitaria sanguinalis", "summary_of_the_method": "as §1"}, "velvetleaf [9]": {"test_system": "velvetleaf", "assay": "Test A postemergence", "format": "in vivo, Abutilon theophrasti", "summary_of_the_method": "as §1"}, "morningglory [10]": {"test_system": "morningglory", "assay": "Test A preemergence", "format": "in vivo, Ipomoea spp.", "settings": "for Morningglory plant response rating: 0 to 100 scale, 0 no effect, 100 complete control, approx. 10 days", "summary_of_the_method": "as §1"}, "sedge, umbrella": {"test_system": "sedge, umbrella", "assay": "Test B flooded paddy test", "format": "in vivo, Cyperus difformis", "settings": "Flood, 250 g ai/ha; 0 to 100 scale where 0 is no effect and 100 is complete control", "summary_of_the_method": "as §2"}, "barnyardgrass [11]": {"test_system": "barnyardgrass", "assay": "Test A postemergence", "format": "in vivo, Echinochloa crus-galli", "summary_of_the_method": "as §1"}, "large (Lg) crabgrass [12]": {"test_system": "large (Lg) crabgrass", "assay": "Test A postemergence", "format": "in vivo, Digitaria sanguinalis", "summary_of_the_method": "as §1"}, "velvetleaf [13]": {"test_system": "velvetleaf", "assay": "Test A preemergence", "format": "in vivo, Abutilon theophrasti", "settings": "for Velvetleaf plant response rating: 0 to 100 scale, 0 no effect, 100 complete control, approx. 10 days", "summary_of_the_method": "as §1"}, "giant foxtail [14]": {"test_system": "giant foxtail", "assay": "Test A preemergence", "format": "in vivo, Setaria faberii", "settings": "for Foxtail, Giant plant response rating: 0 to 100 scale, 0 no effect, 100 complete control, approx. 10 days", "summary_of_the_method": "as §1"}, "giant foxtail [15]": {"test_system": "giant foxtail", "assay": "Test A postemergence", "format": "in vivo, Setaria faberii", "summary_of_the_method": "as §1"}, "corn [16]": {"test_system": "corn", "assay": "Test A postemergence", "format": "in vivo, Zea mays", "summary_of_the_method": "as §1"}, "wheat [17]": {"test_system": "wheat", "assay": "Test A postemergence", "format": "in vivo, Triticum aestivum", "summary_of_the_method": "as §1"}, "[18]": {"settings": "125 g ai/ha, 0 to 100 scale where 0 is no effect and 100 is complete control"}, "[19]": {"settings": "500 g ai/ha, 0 to 100 scale, 0 no effect, 100 complete control, approx. 10 days"}, "[20]": {"settings": "500 g ai/ha, 0 to 100 scale, 0 no effect, 100 complete control"}, "[21]": {"settings": "1000 g ai/ha, 0 to 100 scale, 0 no effect, 100 complete control"}}, "data": [{"smiles": "O=[N+]([O-])c1cccc(Oc2ncc(Cl)cn2)c1-n1cc(Br)cn1", "note": "[Compound 63]", "values": [{"measurement": "Plant response rating, Corn", "setting": "corn [1]; [18]", "result": 0}, {"measurement": "Corn plant response rating", "setting": "corn [1]; [19]", "result": 0}, {"measurement": "Plant response rating, Ducksalad", "setting": "Heteranthera limosa", "result": 0}, {"measurement": "Plant response rating, Barnyardgrass", "setting": "barnyardgrass [2]; [18]", "result": 0}, {"measurement": "Barnyardgrass plant response rating", "setting": "barnyardgrass [2]; [19]", "result": 70}, {"measurement": "Plant response rating, Barnyardgrass", "setting": "barnyardgrass [3]", "result": 0}, {"measurement": "Plant response rating, Morningglory", "setting": "morningglory [4]; [18]", "result": 30}, {"measurement": "Plant response rating, Morningglory", "setting": "morningglory [4]; [20]", "result": 80}, {"measurement": "Plant response rating, Pigweed", "setting": "pigweed [5]; [18]", "result": 70}, {"measurement": "Plant response rating, Pigweed", "setting": "pigweed [5]; [20]", "result": 100}, {"measurement": "Plant response rating, Pigweed", "setting": "pigweed [6]; [18]", "result": 90}, {"measurement": "Pigweed plant response rating", "setting": "pigweed [6]; 500 g ai/ha", "result": 100}, {"measurement": "Plant response rating, Wheat", "setting": "wheat [7]; [18]", "result": 0}, {"measurement": "Wheat plant response rating", "setting": "wheat [7]; 500 g ai/ha", "result": 0}, {"measurement": "Plant response rating, Rice", "setting": "rice", "result": 0}, {"measurement": "Plant response rating, Crabgrass, Large", "setting": "large (Lg) crabgrass [8]; [18]", "result": 80}, {"measurement": "Crabgrass, Large plant response rating", "setting": "large (Lg) crabgrass [8]; [19]", "result": 100}, {"measurement": "Plant response rating, Velvetleaf", "setting": "velvetleaf [9]; [18]", "result": 60}, {"measurement": "Plant response rating, Velvetleaf", "setting": "velvetleaf [9]; [20]", "result": 100}, {"measurement": "Plant response rating, Morningglory", "setting": "morningglory [10]; [18]", "result": 0}, {"measurement": "Morningglory plant response rating", "setting": "morningglory [10]; 500 g ai/ha", "result": 0}, {"measurement": "Plant response rating, Sedge, Umbrella", "setting": "sedge, umbrella", "result": 0}, {"measurement": "Plant response rating, Barnyardgrass", "setting": "barnyardgrass [11]; [18]", "result": 30}, {"measurement": "Plant response rating, Barnyardgrass", "setting": "barnyardgrass [11]; [20]", "result": 70}, {"measurement": "Plant response rating, Crabgrass, Large", "setting": "large (Lg) crabgrass [12]; [18]", "result": 30}, {"measurement": "Plant response rating, Crabgrass, Large", "setting": "large (Lg) crabgrass [12]; [20]", "result": 90}, {"measurement": "Plant response rating, Velvetleaf", "setting": "velvetleaf [13]; [18]", "result": 0}, {"measurement": "Velvetleaf plant response rating", "setting": "velvetleaf [13]; 500 g ai/ha", "result": 20}, {"measurement": "Plant response rating, Foxtail, Giant", "setting": "giant foxtail [14]; [18]", "result": 20}, {"measurement": "Foxtail, Giant plant response rating", "setting": "giant foxtail [14]; 500 g ai/ha", "result": 100}, {"measurement": "Plant response rating, Foxtail, Giant", "setting": "giant foxtail [15]; [18]", "result": 20}, {"measurement": "Plant response rating, Foxtail, Giant", "setting": "giant foxtail [15]; [20]", "result": 80}, {"measurement": "Plant response rating, Corn", "setting": "corn [16]; [18]", "result": 0}, {"measurement": "Plant response rating, Corn", "setting": "corn [16]; [20]", "result": 30}, {"measurement": "Plant response rating, Wheat", "setting": "wheat [17]; [18]", "result": 0}, {"measurement": "Plant response rating, Wheat", "setting": "wheat [17]; [20]", "result": 10}]}, {"smiles": "FC(F)(F)COc1cccc(Oc2ncc(Cl)cn2)c1-n1cc(Br)cn1", "note": "[Compound 69]", "values": [{"measurement": "Plant response rating, Corn", "setting": "corn [1]; [21]", "result": 0}, {"measurement": "Plant response rating, Ducksalad", "setting": "Heteranthera limosa", "result": 0}, {"measurement": "Plant response rating, Barnyardgrass", "setting": "barnyardgrass [2]; [21]", "result": 70}, {"measurement": "Plant response rating, Barnyardgrass", "setting": "barnyardgrass [3]", "result": 0}, {"measurement": "Plant response rating, Morningglory", "setting": "morningglory [4]; [21]", "result": 30}, {"measurement": "Plant response rating, Pigweed", "setting": "pigweed [5]; [21]", "result": 100}, {"measurement": "Pigweed plant response rating", "setting": "pigweed [6]; 1000 g ai/ha", "result": 100}, {"measurement": "Wheat plant response rating", "setting": "wheat [7]; 1000 g ai/ha", "result": 20}, {"measurement": "Plant response rating, Rice", "setting": "rice", "result": 0}, {"measurement": "Plant response rating, Crabgrass, Large", "setting": "large (Lg) crabgrass [8]; [21]", "result": 90}, {"measurement": "Plant response rating, Velvetleaf", "setting": "velvetleaf [9]; [21]", "result": 60}, {"measurement": "Morningglory plant response rating", "setting": "morningglory [10]; 1000 g ai/ha", "result": 10}, {"measurement": "Plant response rating, Sedge, Umbrella", "setting": "sedge, umbrella", "result": 0}, {"measurement": "Plant response rating, Barnyardgrass", "setting": "barnyardgrass [11]; [21]", "result": 50}, {"measurement": "Plant response rating, Crabgrass, Large", "setting": "large (Lg) crabgrass [12]; [21]", "result": 80}, {"measurement": "Velvetleaf plant response rating", "setting": "velvetleaf [13]; 1000 g ai/ha", "result": 80}, {"measurement": "Foxtail, Giant plant response rating", "setting": "giant foxtail [14]; 1000 g ai/ha", "result": 90}, {"measurement": "Plant response rating, Foxtail, Giant", "setting": "giant foxtail [15]; [21]", "result": 70}, {"measurement": "Plant response rating, Corn", "setting": "corn [16]; [21]", "result": 20}, {"measurement": "Plant response rating, Wheat", "setting": "wheat [17]; [21]", "result": 30}]}]}
